Reference: patent US9546150B2, “Substituted quinazolin-4-ones for inhibiting ubiquitin specific protease 7” (HYBRIGENICS SA, priority 2011, dated 2017)

Legend:
Format in all cases: biochemical
USP10 = USP10 (Homo sapiens, UniProt Q14694); test: HAUbVS competition assay in HEK293 cell lysates, USP10; conditions: 12.5-200 μM
CYLD = target: T1, CYLD (Homo sapiens, UniProt Q9NQC7); test: HAUbVS competition assay in HEK293 cell lysates, CYLD; conditions: 12.5-200 μM
T1 sequence (Q9NQC7 1-956): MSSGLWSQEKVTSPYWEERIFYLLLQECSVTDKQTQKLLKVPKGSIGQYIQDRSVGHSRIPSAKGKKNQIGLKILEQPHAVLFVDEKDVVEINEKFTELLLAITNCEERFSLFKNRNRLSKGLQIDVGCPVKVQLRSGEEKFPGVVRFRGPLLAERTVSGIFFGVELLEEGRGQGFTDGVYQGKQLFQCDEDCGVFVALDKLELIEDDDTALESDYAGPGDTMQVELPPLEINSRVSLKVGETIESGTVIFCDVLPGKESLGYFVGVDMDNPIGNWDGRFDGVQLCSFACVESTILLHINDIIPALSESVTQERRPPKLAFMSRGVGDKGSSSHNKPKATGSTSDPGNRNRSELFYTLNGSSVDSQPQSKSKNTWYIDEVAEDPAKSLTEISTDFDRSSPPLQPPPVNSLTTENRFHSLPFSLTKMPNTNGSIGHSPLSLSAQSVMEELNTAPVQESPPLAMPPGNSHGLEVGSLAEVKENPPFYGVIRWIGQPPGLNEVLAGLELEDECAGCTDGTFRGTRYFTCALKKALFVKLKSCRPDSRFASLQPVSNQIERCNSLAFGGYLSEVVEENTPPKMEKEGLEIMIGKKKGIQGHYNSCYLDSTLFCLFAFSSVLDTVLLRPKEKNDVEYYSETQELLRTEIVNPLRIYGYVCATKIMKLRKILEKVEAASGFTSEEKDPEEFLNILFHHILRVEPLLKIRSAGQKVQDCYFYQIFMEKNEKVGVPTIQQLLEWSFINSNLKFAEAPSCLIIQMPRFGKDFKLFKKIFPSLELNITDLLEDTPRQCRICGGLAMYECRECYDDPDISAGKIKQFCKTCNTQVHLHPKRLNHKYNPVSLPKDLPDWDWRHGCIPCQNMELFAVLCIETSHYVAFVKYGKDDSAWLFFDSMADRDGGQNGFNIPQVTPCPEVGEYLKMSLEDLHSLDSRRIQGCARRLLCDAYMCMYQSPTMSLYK

USP7 [1] = target: T2, USP7 (Homo sapiens, UniProt Q93009); test: HAUbVS competition assay in HEK293 cell lysates, USP7; conditions: for blocking of HAUbVS labeling of USP7 (anti-USP7 antibody): HEK293 cell lysates, 12.5-200 μM, dose-dependent; for anti-HA immunoblot band at the size corresponding to HA-Ub-VS-USP7: lysed HEK293 cells, different doses, no change of the other bands
USP5 = target: T3, USP5 (Homo sapiens, UniProt P45974); test: HAUbVS competition assay in HEK293 cell lysates, USP5; conditions: 12.5-200 μM
T3 sequence (P45974 1-858): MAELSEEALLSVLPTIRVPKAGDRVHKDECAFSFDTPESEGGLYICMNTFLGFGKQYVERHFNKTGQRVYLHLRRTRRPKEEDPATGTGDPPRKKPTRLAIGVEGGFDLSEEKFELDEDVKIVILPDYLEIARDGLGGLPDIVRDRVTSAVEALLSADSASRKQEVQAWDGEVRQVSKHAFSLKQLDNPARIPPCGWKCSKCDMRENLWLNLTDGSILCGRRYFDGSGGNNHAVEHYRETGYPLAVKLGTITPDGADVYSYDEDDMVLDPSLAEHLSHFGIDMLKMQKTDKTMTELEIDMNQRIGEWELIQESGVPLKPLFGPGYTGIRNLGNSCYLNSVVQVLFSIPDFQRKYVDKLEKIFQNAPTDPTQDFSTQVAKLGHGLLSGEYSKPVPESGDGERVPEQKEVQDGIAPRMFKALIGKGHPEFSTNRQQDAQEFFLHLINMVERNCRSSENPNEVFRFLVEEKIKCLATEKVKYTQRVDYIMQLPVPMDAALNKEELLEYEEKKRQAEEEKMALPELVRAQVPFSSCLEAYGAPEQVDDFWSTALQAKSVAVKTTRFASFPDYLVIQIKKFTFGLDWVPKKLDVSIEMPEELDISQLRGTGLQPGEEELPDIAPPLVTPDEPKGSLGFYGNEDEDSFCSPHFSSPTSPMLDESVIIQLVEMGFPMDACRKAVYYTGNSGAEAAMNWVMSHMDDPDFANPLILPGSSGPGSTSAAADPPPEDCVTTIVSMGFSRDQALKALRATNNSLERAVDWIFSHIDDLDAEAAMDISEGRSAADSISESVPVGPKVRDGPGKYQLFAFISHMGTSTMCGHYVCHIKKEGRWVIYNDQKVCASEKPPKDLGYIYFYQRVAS
Procedure: The HA-Ub-VS probe (Hemagglutin tag-Ubiquitin-Vinyl Sulfone) was used in this study to directly visualize the activity of all deubiquitinating enzymes from native proteomes.
HEK293 cells were harvested and lysed on ice with a non denaturating buffer containing Tris pH7.4, 50 mM; NaCl, 150 mM; MgCl2, 5 mM; EDTA, 0.5 mM; DTT, 2 mM; ATP (adenosine triphosphate), 2 mM; NP40 (nonyl phenoxypolyethoxylethanol), 0.5% and glycerol, 10%. Samples were incubated at 4° C. for 1 hour and clarified. Proteins were then quantified by Bradford method (Bio-Rad Protein Assay). […] The ubiquitin labeling reaction was initiated by the addition of HA-Ub-VS (8 μg/ml) in labeling buffer (Tris pH7.6, 50 mM; MgCl2, 5 mM; EDTA, 0.5 mM; DTT, 2 mM; ATP, 2 mM; sucrose, 250 mM) and incubated at room temperature for 15 min. Samples were next heated at 100° C. for 10 minutes and briefly sonicated. They were resolved by SDS-polyacrylamide gel electrophoresis (SDS-PAGE), transferred to a nitrocellulose membrane and probed with antibodies against USP7, HA, UCH-L3, CYLD, USP8, USP5, USP10 and Stat3. […] Signals were detected by enhanced chemiluminescence (ECL; Amersham) according to the reagent manufacturer's instructions.

USP7 [2] = target: T2, USP7; test: Reversibility of USP7 inhibition after G50 gel filtration; set-up: Full-length wild-type human USP7 and its catalytic mutant; His tag (pFastBac-HT vector) (N); made in house; host or cells: Spodoptera frugiperda Sf9 (or High Five) insect cells, baculovirus; conditions: 100 μM, 4 h at room temperature, USP7 100 pM
Procedure: The reversibility of inhibition was next determined by measuring the recovery of enzymatic activity after gel filtration. […] We passed some of each sample through a G50 gel filtration system (Sephadex, G50 superfine, Sigma Aldricht). The deubiquitinating activity of the G50 eluates was assessed with the Ub-AMC substrate, as described above, and compared with that of samples not subjected to G50 filtration. The reactions were monitored using the PHERAstar (BMG Labtech).

T2 sequence (Q93009 whole entry): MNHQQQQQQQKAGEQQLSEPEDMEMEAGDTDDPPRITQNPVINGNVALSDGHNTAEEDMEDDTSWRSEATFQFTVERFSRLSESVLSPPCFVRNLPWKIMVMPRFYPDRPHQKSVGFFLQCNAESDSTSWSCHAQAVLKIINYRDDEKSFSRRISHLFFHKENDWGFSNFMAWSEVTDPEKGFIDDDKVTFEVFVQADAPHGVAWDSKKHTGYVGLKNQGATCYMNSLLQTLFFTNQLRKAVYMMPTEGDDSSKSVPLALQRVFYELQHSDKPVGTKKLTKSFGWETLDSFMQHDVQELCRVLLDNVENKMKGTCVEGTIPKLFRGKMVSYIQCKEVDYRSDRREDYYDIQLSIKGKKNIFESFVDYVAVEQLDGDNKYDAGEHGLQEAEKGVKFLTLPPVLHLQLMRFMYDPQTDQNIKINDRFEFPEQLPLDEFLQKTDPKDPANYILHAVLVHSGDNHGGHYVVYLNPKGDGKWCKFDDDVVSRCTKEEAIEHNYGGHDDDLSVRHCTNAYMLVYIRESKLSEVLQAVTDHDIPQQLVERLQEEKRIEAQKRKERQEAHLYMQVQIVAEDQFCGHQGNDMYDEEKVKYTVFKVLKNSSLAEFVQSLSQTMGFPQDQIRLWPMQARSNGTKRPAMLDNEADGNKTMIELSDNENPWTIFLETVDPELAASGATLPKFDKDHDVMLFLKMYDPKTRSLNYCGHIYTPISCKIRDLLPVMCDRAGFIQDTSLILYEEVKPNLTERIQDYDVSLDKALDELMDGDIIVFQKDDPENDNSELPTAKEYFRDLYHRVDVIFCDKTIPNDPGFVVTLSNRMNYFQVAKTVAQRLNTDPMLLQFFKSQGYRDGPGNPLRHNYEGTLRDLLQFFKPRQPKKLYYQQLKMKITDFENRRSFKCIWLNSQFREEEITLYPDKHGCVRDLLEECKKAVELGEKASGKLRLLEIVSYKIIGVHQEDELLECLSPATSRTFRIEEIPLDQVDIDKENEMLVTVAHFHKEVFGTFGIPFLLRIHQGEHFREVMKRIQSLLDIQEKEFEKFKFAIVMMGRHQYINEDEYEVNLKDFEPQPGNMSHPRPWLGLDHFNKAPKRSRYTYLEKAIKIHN
Sequence of USP10 (Q14694 whole entry): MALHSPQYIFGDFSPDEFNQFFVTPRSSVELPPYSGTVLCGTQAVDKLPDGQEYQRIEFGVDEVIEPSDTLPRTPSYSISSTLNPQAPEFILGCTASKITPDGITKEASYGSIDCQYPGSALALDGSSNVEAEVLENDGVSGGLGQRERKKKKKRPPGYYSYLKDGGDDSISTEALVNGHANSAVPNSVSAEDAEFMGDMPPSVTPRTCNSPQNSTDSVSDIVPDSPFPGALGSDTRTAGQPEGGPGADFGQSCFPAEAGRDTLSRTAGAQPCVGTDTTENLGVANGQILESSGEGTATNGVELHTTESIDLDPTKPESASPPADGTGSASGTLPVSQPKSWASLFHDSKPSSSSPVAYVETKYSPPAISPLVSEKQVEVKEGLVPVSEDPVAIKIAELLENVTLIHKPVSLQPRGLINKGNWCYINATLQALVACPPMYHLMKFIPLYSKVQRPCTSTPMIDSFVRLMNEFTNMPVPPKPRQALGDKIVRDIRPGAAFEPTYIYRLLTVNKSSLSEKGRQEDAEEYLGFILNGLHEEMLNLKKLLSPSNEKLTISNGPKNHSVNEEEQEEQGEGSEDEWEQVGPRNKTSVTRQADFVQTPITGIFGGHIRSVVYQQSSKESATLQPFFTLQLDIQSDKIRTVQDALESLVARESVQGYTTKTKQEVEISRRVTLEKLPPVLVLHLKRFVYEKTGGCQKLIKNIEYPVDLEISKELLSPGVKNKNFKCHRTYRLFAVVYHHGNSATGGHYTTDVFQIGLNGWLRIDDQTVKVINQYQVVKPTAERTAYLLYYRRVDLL

Row | Structure (SMILES) | blocking of HAUbVS labeling of USP10 (USP10) | blocking of HAUbVS labeling of CYLD (CYLD) | blocking of HAUbVS labeling of USP7 (anti-USP7 antibody) (USP7 [1]) | anti-HA immunoblot band at the size corresponding to HA-Ub-VS-USP7 (USP7 [1]) | blocking of HAUbVS labeling of USP5 (USP5) | recovery of USP7 activity after G50 gel filtration (USP7 [2])
1 | O=C(CCc1ccccc1)N1CCC(O)(Cn2cnc3cc(Cl)ccc3c2=O)CC1 [Example 2, 7-chloro-3-{[4-hydroxy-1-(3-phenylpropanoyl)piperidin-4-yl]methyl}-3,4-dihydroquinazolin-4-one] | without any cross-reaction | without any cross-reaction | efficiently blocked labeling of USP7 | almost completely eliminated | – | –
2 | CC(Cc1cccs1)C(=O)N1CCC(O)(Cn2cnc3ccccc3c2=O)CC1 (stereo not shown) [Example 5, 3-({4-hydroxy-1-[2-methyl-3-(thiophen-2-yl)propanoyl]piperidin-4-yl}methyl)-3,4-dihydroquinazolin-4-one] | without any cross-reaction | without any cross-reaction | efficiently blocked labeling of USP7 | almost completely eliminated | without any cross-reaction | –
3 | O=C(CCC1CCCC1)N1CCC(O)(Cn2cnc3ccccc3c2=O)CC1 [Example 3, 3-{[1-(3-cyclopentylpropanoyl)-4-hydroxypiperidin-4-yl]methyl}-3,4-dihydroquinazolin-4-one] | – | – | – | – | – | total restoration of USP7 activity
